Results taken from ChEMBL document CHEMBL1121712, “Permethyl analogue of the pyrrolic antibiotic distamycin A” (J Med Chem, 1981).

How the values were obtained:
[1] = Dissociation constant was determined; assay type: physicochemical
Mus musculus = species on record: Mus musculus; experiment: Mean survival time at a dose of 25 ug/mL in mouse fibroblasts and Maloney sarcoma transplanted 3T3 fibroblasts by using Rane assay; Nontoxic; assay type: functional, organism-based
Plasmodium berghei = experiment: Mean survival time in blood schizonticidal screen against Plasmodium berghei at 640 mg/kg by Rane assay; Non-toxic; assay type: functional, organism-based; design: dose 640 mg/kg

pKa [1] | Structure (SMILES) | Mean survival time (Mus musculus) | Mean survival time (Plasmodium berghei)
5.5 | Cc1c([N+](=O)[O-])c(C)n(C)c1C(=O)O | – | –
– | Cc1c(NC=O)c(C)n(C)c1C(=O)Nc1c(C)c(C(=O)NCCC(=N)N)n(C)c1C | Non-toxic | Non-toxic
– | Cc1c(NC=O)c(C)n(C)c1C(=O)NCCC(=N)N | Non-toxic | Non-toxic
